# Reference: patent US12077503B2, “Substituted cyclic amides and their use as herbicides” (FMC CORPORATION, priority 2015, dated 2024)
# Like-named read-outs stand apart in the source and are kept apart here.
# Key:
# Assay type in all cases: in vivo
# [1] = test system: barnyardgrass (Echinochloa crus-galli); assay: Test A preemergence; settings: Echinochloa crus-galli, pre-emergence, 240 h; for pest or weed control at 125 g/ha: 125 g ai/ha, 0 to 100 scale where 0 is no effect and 100 is complete control; for pest or weed control at 500 g/ha: 500 g ai/ha
# Method in brief: (§1)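 Compounds were formulated in a non-phytotoxic solvent mixture with surfactant and applied as a preemergence directed soil spray after seeding, or sprayed postemergence over plants 2 to 10 cm tall at the one- to two-leaf stage. Evaluation after about 10 d compared treated with untreated controls, using a scale from 0 (no effect) to 100 (complete control).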
# [2] = test system: Galium (catchweed bedstraw, Galium aparine); assay: Test A postemergence; settings: Galium, post-emergence, 240 h, read-out: Plant response rating, Galium; for pest or weed control at 125 g/ha: 125 g ai/ha
# Method in brief: as §1
# Kochia (Kochia scoparia) = assay: Test A postemergence; settings: Bassia scoparia, post-emergence, 240 h, read-out: Plant response rating, Kochia; for pest or weed control at 125 g/ha: 125 g ai/ha
# Method in brief: as §1
# [3] = test system: barnyardgrass (Echinochloa crus-galli); assay: Test A postemergence; settings: Echinochloa crus-galli, post-emergence, 240 h, read-out: Plant response rating, Barnyardgrass; for pest or weed control at 125 g/ha: 125 g ai/ha
# Method in brief: as §1
# [4] = test system: blackgrass (Alopecurus myosuroides); assay: Test A postemergence; settings: Alopecurus myosuroides, post-emergence, 240 h, read-out: Plant response rating, Blackgrass; for pest or weed control at 125 g/ha: 125 g ai/ha
# Method in brief: as §1
# corn (Zea mays) = assay: Test A postemergence; settings: Zea mays, post-emergence, 240 h; for Corn plant response rating (crop injury, 0 = no effect, 100 = complete kill) at 125 g/ha: 125 g ai/ha
# Method in brief: as §1
# [5] = test system: giant foxtail (Setaria faberii); assay: Test A postemergence; settings: Setaria faberi, post-emergence, 240 h, read-out: Plant response rating, Foxtail, Giant; for pest or weed control at 125 g/ha: 125 g ai/ha
# Method in brief: as §1
# [6] = test system: pigweed (Amaranthus retroflexus); assay: Test A postemergence; settings: Amaranthus retroflexus, post-emergence, 240 h, read-out: Plant response rating, Pigweed; for pest or weed control at 125 g/ha: 125 g ai/ha
# Method in brief: as §1
# [7] = test system: ragweed (common ragweed, Ambrosia elatior); assay: Test A postemergence; settings: Ambrosia artemisiifolia, post-emergence, 240 h, read-out: Plant response rating, Ragweed; for pest or weed control at 125 g/ha: 125 g ai/ha
# Method in brief: as §1
# [8] = test system: ryegrass, Italian (Italian ryegrass, Lolium multiflorum); assay: Test A postemergence; settings: Lolium multiflorum, post-emergence, 240 h, read-out: Plant response rating, Ryegrass, Italian; for pest or weed control at 125 g/ha: 125 g ai/ha
# Method in brief: as §1
# [9] = test system: wheat (Triticum aestivum); assay: Test A postemergence; settings: Triticum aestivum, post-emergence, 240 h, read-out: Plant response rating, Wheat; for plant injury at 125 g/ha: 125 g ai/ha
# Method in brief: as §1
# [10] = test system: barnyardgrass (Echinochloa crus-galli); assay: Test B flooded paddy test; settings: Flood, 250 g ai/ha
# Method in brief: (§2)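 2-leaf plants; pots flooded 3 cm over soil; cpd added to paddy water; depth held; greenhouse 13–15 d; visual rating vs controls, 0 = no effect, 100 = complete control.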
# [11] = test system: ducksalad (Heteranthera limosa); assay: Test B flooded paddy test; settings: Flood, 250 g ai/ha
# Method in brief: as §2
# rice (Oryra sativa) = assay: Test B flooded paddy test; settings: Flood, 250 g ai/ha
# Method in brief: as §2
# [12] = test system: sedge, umbrella (small-flower umbrella sedge, Cyperus difformis); assay: Test B flooded paddy test; settings: Flood, 250 g ai/ha
# Method in brief: as §2
# [13] = postemergence, visual rating after approx. 10 d, 0 to 100 scale (0 no effect, 100 complete control)
# [14] = Postemergence, 500 g ai/ha, 0 to 100 scale where 0 is no effect and 100 is complete control
# [15] = 0 to 100 scale where 0 is no effect and 100 is complete control, 13 to 15 d
# [16] = Postemergence, visual injury after approximately 10 d, 0 to 100 scale where 0 is no effect and 100 is complete control
compound,measurement,setting,value
"CN1C[C@H](c2ccc(C(F)(F)F)cc2)[C@@H](C(=O)Nc2ccccc2F)C1=O [Compound 622, (3S,4S)—N-(2-fluorophenyl)-1-methyl-2-oxo-4-[4-(trifluoromethyl)phenyl]-3-pyrrolidinecarboxamide]",pest or weed control at 125 g/ha,"[1]; Preemergence, visual injury after approximately 10 d, read-out: Plant response rating, Barnyardgrass",90%
same,pest or weed control at 500 g/ha,"[1]; preemergence, 0 to 100 scale, 0 = no effect, 100 = complete control, read-out: Plant response rating, Barnyardgrass",90%
same,pest or weed control at 125 g/ha,[2]; [13],60%
same,pest or weed control at 500 g/ha,[2]; [14],70%
same,pest or weed control at 125 g/ha,Kochia (Kochia scoparia); [13],40%
same,pest or weed control at 500 g/ha,Kochia (Kochia scoparia); [14],60%
same,pest or weed control at 125 g/ha,[3]; [13],90%
same,pest or weed control at 500 g/ha,[3]; [14],90%
same,pest or weed control at 125 g/ha,[4]; [13],30%
same,pest or weed control at 500 g/ha,[4]; [14],60%
same,"Corn plant response rating (crop injury, 0 = no effect, 100 = complete kill) at 125 g/ha",corn (Zea mays); [13],50%
same,"Corn plant response rating (crop injury, 0 = no effect, 100 = complete kill) at 500 g/ha",corn (Zea mays); [14],70%
same,pest or weed control at 125 g/ha,[5]; [13],80%
same,pest or weed control at 500 g/ha,[5]; [14],90%
same,pest or weed control at 125 g/ha,[6]; [13],40%
same,pest or weed control at 500 g/ha,[6]; [14],50%
same,pest or weed control at 125 g/ha,[7]; [13],0%
same,pest or weed control at 500 g/ha,[7]; [14],40%
same,pest or weed control at 125 g/ha,[8]; [13],30%
same,pest or weed control at 500 g/ha,[8]; [14],50%
same,plant injury at 125 g/ha,[9]; [13],30%
same,plant injury at 500 g/ha,[9]; [14],70%
same,"Plant response rating, Barnyardgrass",[10]; [15],70
same,"Plant response rating, Ducksalad",[11]; [15],100
same,"Plant response rating, Rice",rice (Oryra sativa); [15],0
same,"Plant response rating, Sedge, Umbrella",[12]; [15],0
CN1C[C@H](c2ccc(C(F)(F)F)cc2)[C@@H](C(=O)Nc2ccccc2[S+](C)[O-])C1=O (stereo partly drawn) [Compound 915],pest or weed control at 125 g/ha,"[1]; preemergence, read-out: Barnyardgrass plant response rating",100%
same,pest or weed control at 500 g/ha,"[1]; Preemergence, visual injury vs untreated controls after approximately 10 d, read-out: Barnyardgrass plant response rating (0 to 100 scale where 0 is no effect and 100 is complete control)",100%
same,pest or weed control at 125 g/ha,[2]; [16],50%
same,pest or weed control at 125 g/ha,Kochia (Kochia scoparia); [16],20%
same,pest or weed control at 125 g/ha,[3]; [16],90%
same,pest or weed control at 125 g/ha,[4]; [16],40%
same,"Corn plant response rating (crop injury, 0 = no effect, 100 = complete kill) at 125 g/ha",corn (Zea mays); [16],0%
same,pest or weed control at 125 g/ha,[5]; [16],90%
same,pest or weed control at 125 g/ha,[6]; [16],60%
same,pest or weed control at 125 g/ha,[7]; [16],30%
same,pest or weed control at 125 g/ha,[8]; [16],30%
same,plant injury at 125 g/ha,[9]; [16],40%
same,pest or weed control at 250 g/ha,"[10]; Echinochloa crus-galli, scale of 0 to 100 where 0 is no effect and 100 is complete control, read-out: Barnyardgrass plant response rating",40%
same,pest or weed control at 250 g/ha,"[11]; Heteranthera limosa, scale of 0 to 100 where 0 is no effect and 100 is complete control, read-out: Ducksalad plant response rating",100%
same,pest or weed control at 250 g/ha,"rice (Oryra sativa); Oryza sativa, scale of 0 to 100 where 0 is no effect and 100 is complete control, read-out: Rice plant response rating",20%
same,pest or weed control at 250 g/ha,"[12]; Cyperus difformis, scale of 0 to 100 where 0 is no effect and 100 is complete control, read-out: Sedge, Umbrella plant response rating",0%
